Source: patent publication US9226501B2, “Pesticidal compositions and processes related thereto” (Dow AgroSciences LLC, priority 2012, dated 2016)

Tests used:
[1] = tested on: Beet Armyworm (BAW) (spodoptera exigua); experiment: Bioassay on beet armyworm (BAW), 128-well diet tray assay; type: in vivo; conditions: for pest or weed control at 50 µg/cm2: Spodoptera exigua, 168 h, % mortality, second instar larvae, 50 μg/cm^2 on artificial diet, five to seven days, 25° C., read-out: BAW Rating
Procedure: (§1) Certain molecules disclosed in this document were tested against BAW, CEW and CL using procedures described in the following examples. In the reporting of the results, the “BAW & CEW & CL Rating Table” was used (See Table Section).
Bioassays on BAW were conducted using a 128-well diet tray assay. One to five second instar BAW larvae were placed in each well (3 mL) of the diet tray that had been previously filled with 1 mL of artificial diet to which 50 μg/cm^2 of the test compound (dissolved in 50 μL of 90:10 acetone-water mixture) had been applied (to each of eight wells) and then allowed to dry. Trays were covered with a clear self-adhesive cover, and held at 25° C., 14:10 light-dark for five to seven days. Percent mortality was recorded for the larvae in each well; activity in the eight wells was then averaged. The results are indicated in the tables entitled “Table 3: Assay Results Part 1” and “Table 4: Assay Results Part 2” (See Table Section).

[2] = tested on: Cabbage Looper (CL) (Trichoplusia ni); experiment: Bioassay on cabbage looper (CL), 128-well diet tray assay; type: in vivo; conditions: for CL Rating: Table 5, prophetic compounds subsequently exemplified, cabbage looper; for pest or weed control at 50 µg/cm2: Trichoplusia ni, 168 h, % mortality, second instar larvae, 50 μg/cm^2 on artificial diet, five to seven days, 25° C., read-out: CL Rating
Procedure: as §1
Bioassays on CL were conducted using a 128-well diet tray assay. One to five second instar CL larvae were placed in each well (3 mL) of the diet tray that had been previously filled with 1 mL of artificial diet to which 50 μg/cm^2 of the test compound (dissolved in 50 μL of 90:10 acetone-water mixture) had been applied (to each of eight wells) and then allowed to dry. Trays were covered with a clear self-adhesive cover, and held at 25° C., 14:10 light-dark for five to seven days. Percent mortality was recorded for the larvae in each well; activity in the eight wells was then averaged. The results are indicated in the table entitled “Table 4: Assay Results Part 2” (See Table Section).

[3] = Table 5, prophetic compounds subsequently exemplified, beet armyworm

Compound | BAW Rating [1, 3] | CL Rating [2] | also measured
C[C@@H](NC(=O)c1ccc(/C=C/C(c2ccc(Cl)c([N+](=O)[O-])c2)C(F)(F)F)cc1C(F)(F)F)C(=O)NCC(F)(F)F (some centres unmarked) [P732] | A (50-100) | A (50-100) | –
C[C@@H](NC(=O)c1ccc(/C=C/C(c2cccc(OC(F)(F)F)c2)C(F)(F)F)cc1Br)C(=O)NCC(F)(F)F (some centres unmarked) [P226] | A (50-100) | A (50-100) | –
CCC[C@@H](NC(=O)c1ccc(/C=C/C(c2cc(Cl)c(Cl)c(Cl)c2)C(F)(F)F)cc1Br)C(=O)NCC(F)(F)F (some centres unmarked) [FA19] | – | – | pest or weed control at 50 µg/cm2 [1]: 50 to 100%; pest or weed control at 50 µg/cm2 [2]: 50 to 100%
C[C@@H](NC(=O)c1ccc(/C=C/C(c2cc(Br)cc(Br)c2)C(F)(F)F)cc1Br)C(=O)NCC(F)F (some centres unmarked) [P2036] | A (50-100) | A (50-100) | –
Cc1cc(/C=C/C(c2cc(Cl)c(Cl)c(Cl)c2)C(F)(F)F)ccc1C(=O)NCC(=S)NCC(F)(F)F (centres unmarked) [P1560] | A (50-100) | A (50-100) | –
C[C@@H](NC(=O)c1ccc(/C=C/C(c2cc(Br)cc(Br)c2)C(F)(F)F)cc1C(F)(F)F)C(=O)NCCC(F)(F)F (some centres unmarked) [P2058] | A (50-100) | A (50-100) | –
Cc1cc(/C=C/C(c2cc(Cl)c(Cl)c(Cl)c2)C(F)(F)F)ccc1C(=O)NCC(=O)NC(C)C(F)(F)F (centres unmarked) [P1592] | A (50-100) | A (50-100) | –
C[C@@H](NC(=O)c1ccc(/C=C/C(c2cc(Cl)cc(Cl)c2)C(F)(F)C(F)(F)F)cc1C(F)(F)F)C(=O)NCC(F)(F)F (some centres unmarked) [P1693] | A (50-100) | A (50-100) | –
C[C@@H](NC(=O)c1ccc(/C=C/C(c2ccc(Cl)c(Cl)c2)C(F)(F)F)cc1Br)C(=O)NCC(F)(F)F (some centres unmarked) [P1806] | A (50-100) | A (50-100) | –
Nc1cc(/C=C/C(c2cc(Cl)c(F)c(Cl)c2)C(F)(F)F)ccc1C(=O)NCC(=O)NCC(F)(F)F (centres unmarked) [FA6] | – | – | pest or weed control at 50 µg/cm2 [1]: 50 to 100%; pest or weed control at 50 µg/cm2 [2]: 50 to 100%
CC(NC(=O)c1ccc(/C=C/C(c2cc(Cl)c(Cl)c(Cl)c2)C(F)(F)F)cc1Br)C(=O)NCC(F)F (centres unmarked) [P1611A] | A (50-100) | A (50-100) | –
CC(C)[C@@H](NC(=O)c1ccc(/C=C/C(c2cc(Cl)c(Cl)c(Cl)c2)C(F)(F)F)cc1C(F)(F)F)C(=O)NCC(F)(F)F (some centres unmarked) [FA33] | – | – | pest or weed control at 50 µg/cm2 [1]: 50 to 100%; pest or weed control at 50 µg/cm2 [2]: 50 to 100%
CS(=O)(=O)c1cc(/C=C/C(c2cc(Cl)c(F)c(Cl)c2)C(F)(F)F)ccc1C(=O)NCC(=O)NCC(F)(F)F (centres unmarked) [FA34] | – | – | pest or weed control at 50 µg/cm2 [2]: 50 to 100%
CC(C)(NC(=O)c1ccc(/C=C/C(c2cc(Cl)c(Cl)c(Cl)c2)C(F)(F)F)cc1Cl)C(=S)NCC(F)(F)F (centres unmarked) [FA9] | – | – | pest or weed control at 50 µg/cm2 [1]: 50 to 100%; pest or weed control at 50 µg/cm2 [2]: 50 to 100%
O=C(CNC(=O)c1ccc(/C=C/C(c2cc(Cl)c(Cl)c(Cl)c2)C(F)(F)F)cc1C(F)(F)F)NCC(F)(F)F (centres unmarked) [P1556] | A (50-100) | A (50-100) | –
O=C(CNC(=O)c1ccc(/C=C/C(c2cc(Cl)c(O)c(Cl)c2)C(F)(F)F)cc1Br)NCC(F)(F)F (centres unmarked) [FA13] | – | – | pest or weed control at 50 µg/cm2 [2]: 50 to 100%
O=C(NCc1ccc(/C=C/C(c2cc(Cl)c(Cl)c(Cl)c2)C(F)(F)F)cc1C(F)(F)F)c1cccnc1 (centres unmarked) [CC23] | – | – | BAW Rating ([1]; Table 3, beet armyworm): A (50-100)
C[C@@H](NC(=O)c1ccc(/C=C/C(c2cc(Br)cc(Br)c2)C(F)(F)F)cc1C(F)(F)F)C(=O)NCCF (some centres unmarked) [P2043] | A (50-100) | A (50-100) | –
N#Cc1c(F)cc(C(/C=C/c2ccc(C(=O)NCC(=O)NCC(F)(F)F)c(Br)c2)C(F)(F)F)cc1F (centres unmarked) [P2] | – | A (50-100) | –
C[C@@H](NC(=O)c1ccc(/C=C/C(c2cc(Br)cc(Br)c2)C(F)(F)F)cc1C(F)(F)F)C(=O)NCC(F)F (some centres unmarked) [P2038] | A (50-100) | A (50-100) | –

Compound | BAW Rating [1, 3] | CL Rating [2] | also measured
O=C(CNC(=O)c1ccc(/C=C/C(c2ccc(F)c(C(F)(F)F)c2)C(F)(F)F)cc1Br)NCC(F)(F)F (centres unmarked) [P1483] | A (50-100) | A (50-100) | –
C[C@@H](NC(=O)c1ccc(/C=C/C(c2ccc(Cl)c(Cl)c2)C(C)(F)F)cc1Br)C(=O)NCC(F)(F)F (some centres unmarked) [FA29] | – | – | pest or weed control at 50 µg/cm2 [1]: 50 to 100%; pest or weed control at 50 µg/cm2 [2]: 50 to 100%
C[C@@H](NC(=O)c1ccc(/C=C/C(c2cc(Cl)cc(Cl)c2)C(F)(F)C(F)(F)F)cc1Br)C(=O)NCC(F)(F)F (some centres unmarked) [P1691] | A (50-100) | A (50-100) | –
CSc1cc(/C=C/C(c2cc(Cl)c(F)c(Cl)c2)C(F)(F)F)ccc1C(=O)NCC(=O)NCC(F)(F)F (centres unmarked) [P12] | A (50-100) | A (50-100) | –
Cc1ccc(C(/C=C/c2ccc(C(=O)N[C@H](C)C(=O)NCC(F)(F)F)c(C(F)(F)F)c2)C(F)(F)F)cc1Cl (some centres unmarked) [P444] | A (50-100) | A (50-100) | –
C[C@@H](NC(=O)c1ccc(/C=C/C(c2cccc(OC(F)(F)F)c2)C(F)(F)F)cc1C(F)(F)F)C(=O)NCC(F)(F)F (some centres unmarked) [P228] | A (50-100) | A (50-100) | –
C[C@@H](NC(=O)c1ccc(/C=C/C(c2cc(Br)c(Cl)c(Br)c2)C(F)(F)F)cc1Br)C(=O)NCC(F)(F)F (some centres unmarked) [FA26] | – | – | pest or weed control at 50 µg/cm2 [1]: 50 to 100%; pest or weed control at 50 µg/cm2 [2]: 50 to 100%
CC(C)(NC(=O)c1ccc(/C=C/C(c2cc(Cl)c(Cl)c(Cl)c2)C(F)(F)F)cc1Br)C(=S)NCC(F)(F)F (centres unmarked) [FA11] | – | – | pest or weed control at 50 µg/cm2 [1]: 0 to 50%; pest or weed control at 50 µg/cm2 [2]: 50 to 100%
C[C@@H](NC(=O)c1ccc(/C=C/C(c2ccc(F)c(F)c2F)C(F)(F)F)cc1Br)C(=O)NCC(F)(F)F (some centres unmarked) [P82] | A (50-100) | A (50-100) | –
O=C(CNC(=O)c1ccc(/C=C/C(c2cc(Cl)c(Cl)c(Cl)c2)C(F)(F)F)cc1Br)NCC(F)F (centres unmarked) [FA3] | – | – | pest or weed control at 50 µg/cm2 [1]: 50 to 100%; pest or weed control at 50 µg/cm2 [2]: 50 to 100%
O=C(CNC(=O)c1ccc(/C=C/C(c2cc(Cl)c(Cl)c(Cl)c2)C(F)(F)F)cc1C(F)(F)F)NCC(F)F (centres unmarked) [P1566] | A (50-100) | A (50-100) | –
Cc1cc(C(/C=C/c2ccc(C(=O)N[C@H](C)C(=O)NCC(F)(F)F)c(C(F)(F)F)c2)C(F)(F)F)cc(Cl)c1Cl (some centres unmarked) [FA20] | – | – | pest or weed control at 50 µg/cm2 [1]: 50 to 100%; pest or weed control at 50 µg/cm2 [2]: 50 to 100%
O=C(NC1CCN(C2COC2)CC1)c1ccc(/C=C/C(c2cc(Cl)c(Cl)c(Cl)c2)C(F)(F)F)cc1Br (centres unmarked) [AC108, (E)-2-Bromo-N-(1-(oxetan-3-yl)piperidin-4-yl)-4-(4,4,4-trifluoro-3-(3,4,5-trichlorophenyl)but-1-en-1-yl)benzamide] | – | – | BAW Rating ([1]; Table 3, beet armyworm): B (More than 0-Less than 50)
CCNC(=O)NCc1ccc(/C=C/C(c2cc(Cl)cc(Cl)c2)C(F)(F)F)cc1Cl (centres unmarked) [CC31, (E)-1-(2-Chloro-4-(3-(3,5-dichlorophenyl)-4,4,4-trifluorobut-1-en-1-yl)benzyl)-3-ethylurea] | – | – | BAW Rating ([1]; Table 3, beet armyworm): B (More than 0-Less than 50)
C[C@@H](NC(=O)c1ccc(/C=C/C(c2cc(F)cc(Br)c2)C(F)(F)F)cc1Br)C(=O)NCC(F)(F)F (some centres unmarked) [P298] | – | A (50-100) | –
N#CCN1CCC(NC(=O)c2ccc(/C=C/C(c3cc(Cl)c(Cl)c(Cl)c3)C(F)(F)F)cc2Br)CC1 (centres unmarked) [AC107] | – | – | BAW Rating ([1]; Table 3, beet armyworm): B (More than 0-Less than 50)
O=C(NCCc1ccc(Cl)nc1)c1ccc(/C=C/C(c2cc(Cl)c(Cl)c(Cl)c2)C(F)(F)F)cc1Br (centres unmarked) [AC113] | – | – | BAW Rating ([1]; Table 3, beet armyworm): B (More than 0-Less than 50)
O=C(NCC(=S)NCC(F)(F)F)c1ccc(/C=C/C(c2cc(Cl)c(Cl)c(Cl)c2)C(F)(F)F)cc1Br (centres unmarked) [AC92, (E)-2-Bromo-N-(2-thioxo-2-((2,2,2-trifluoroethyl)amino)ethyl)-4-(4,4,4-trifluoro-3-(3,4,5-trichlorophenyl)but-1-en-1-yl)benzamide] | – | – | BAW Rating ([1]; Table 3, beet armyworm): A (50-100)
O=C(CCNC(=O)c1ccc(/C=C/C(c2cc(Cl)c(Cl)c(Cl)c2)C(F)(F)F)cc1C(F)(F)F)NCC(F)(F)F (centres unmarked) [P1640] | – | A (50-100) | –
FC(F)(F)C(/C=C/c1ccc(-n2cncn2)cc1)c1ccccc1 (centres unmarked) [DC3] | – | – | BAW Rating ([1]; Table 3, beet armyworm): B (More than 0-Less than 50)
